Experimental data taken from patent publication US7745465B2, “Method of enhancing cellular production of molecular chaperone, hydroxylamine derivatives useful for enhancing the chaperone production and the preparation thereof” (CytRx Corporation, priority 1995, dated 2010).

Key:
GRP-94 = experiment: Level of GRP-94 in STZ diabetic rat liver (Western blot); format: in vivo; settings: for relative amount of GRP-94: rats diabetic for 4 weeks
HaCaT cells = experiment: Protection of HaCaT keratinocytes against 48° C. heat exposure (viability); format: cell-based, human
Text: HaCaT cell line is a spontaneously immortalized, ancuploid human keratinocyte cell line derived from normal human adult skin (Boukamp et al., J. Cell Biol. 106:761-771 (1988)), HaCaT is a cell line with full epidermal differentiation capacity, with normal keratinization and with nontumorogenic character. This rapidly multiplying keratinocyte line with high ditharnol sensitivity is also characterized by the presence of steroid receptors. HaCaT cells (4×10^5 cells per Petri-dish with a diameter of 35 mm) were seeded and grown in DMEM supplemented with 5% fetal calf serum (Gibco, Cat. No. 011-6290H) under a humidified atmosphere of 5% CO2 at 37° C. 24 hours after plating, the cultures were rinsed with PBS and treated by heat or light.
The confluent cultures of the cells were exposed to heat (42, 44, 46, 47, 48° C.) or UV light (UVA I, 2, 4, 6 J/cm^2). Heat exposure was provided in circulating water baths. As a UV light source, Waldmann PUVA 4000 was used with an energy spectrum of the final output between 320 an 390 nm, peaking at 365 nm. The energy output was monitored by an IL-1700 radiometer equipped with UVA and UVB sensor.
The morphology of the cells was monitored using phase contrast microscopy (Opton Axioplan Microscope, with Plan-Apochromat Ph phase contrast objectives). […]

[1] = test system: mitochondrial ATP synthesis; experiment: Coupling of oxidative phosphorylation / mitochondrial ATP synthesis after heat shock (oxygraph); format: cell-based, Saccharomyces cerevisiae; settings: 10 to 100 μM, one hour at 25° C. before 42° C. heat shock
Procedure: The experimental protocol for determining the impairment of oxidative phosphorylation and mitochondrial ATP synthesis in Saccharomyces cerevisiae is provided in Patriarca et al., Bio-chemistry and Cell Biology, 70:207-214, 1992, said reference being fully incorporated herein by reference.
To S. cerevisiae cells that were maintained at 25° C., varying concentration of N-[2-hydroxy-3-(1-piperidinyl)propoxy]-3-piridinecarboximidoyl chloride maleate was introduced (concentrations between 10 to 100 μM), cells were then incubated for one hour at 25° C. in the presence of N-[2-hydroxy-3-(1-piperidinyl)propoxy]-3-piridinecarboximidoyl chloride maleate. The temperature was then increased to 42° C., and the oxygraph measurements were taken as described in the Patriarca reference.

K562 cells = experiment: Sensitivity of K562 cells to lysis mediated by NK cells; format: cell-based, human; settings: heat shock plus treatment
hsp72 = experiment: HgCl2 stress induced hsp72 level in U-937 cells; format: cell-based, human; settings: 10^−5 M, 0.5 μg/ml HgCl2, 6 hours
Procedure: From the applied cells the 3T3 and L-929 mouse fibroblasts were cultured in MEM medium and grew in monolayer, the U-937 human leukemia cells were maintained in RPMI-1640 medium, in suspension culture, while the HeLa human epithelial cells were cultured in DMEM medium and in monolayer form. Cell cultures were maintained as described in example 6.2 (a) with the difference that cells were cultured in the above mentioned culture mediums.
Experiments were carried out applying stress before and after the drug treatment. Stress was provoked by heat, by chemical agent, HgCl2 treatment. The test compounds were applied in the treatments at the 10^−5 M concentration.
These experiments were performed on HeLa, human epithelial and U-937, human leukemia cells using HgCl2 to induce stress response. Drug treatment was carried out before cells were exposed to the stress. Test cultures were prepared and treatments were performed as in the experiments with the 3T3 cells. After the drug treatment cells were incubated at 37° C. for 15 min. than all the cultures except two (non stressed control) were exposed to 0.5 μg/ml concentration of HgCl2 and the incubation was followed. The induced amount of hsp72 was measured 6 hours after the exposure to stress.

## O=C(O)/C=C\C(=O)O.OC(CON=C(Cl)c1cccnc1)CN1CCCCC1 (stereo not drawn) [N-[2-hydroxy-3-(1-piperidinyl)-propoxy]3-pyridinecarboximidoyl chloride maleate]
GRP-94; 1 week and 2-weeks diabetic animals, 20 mg/kg/day p.o.
  decrease of relative GRP-94 content: completely be reverted
GRP-94; in combination with insulin, 1 week and 2-weeks samples
  levels of GRP-94 compared to the control state: almost doubled
GRP-94; compound alone
  relative amount of GRP-94: no significant alteration
GRP-94; insulinized and treated with the compound
  relative amount of GRP-94: recovery of GRP-94 to the control level
HaCaT cells; combined treatment with 42° C. and compound, 24 hours after 48° C.
  increase in viability: 140%
HaCaT cells; pre-treatment 5×10^-5 M for one hour, 24 hours after the 48° C. treatment
  cell viability increased to: 84%
[1]
  protection from the impairment of mitochondrial ATP synthesis: 40-60%
K562 cells
  lisability of K562 cells by NK cells: synergistic effect on the lisability of K562 cells
hsp72
  increase of the stress induced hsp72 level relative to the stress exposed control: more than 20%
